Reference: patent publication US12577247B2 (BUGWORKS RESEARCH, INC., priority 2021, dated 2026)
Where two headings read alike, the source gives them in different places.

Key:
[1] = target: T1, A2A receptor (Homo sapiens, UniProt P29274); assay: A2aR antagonism IC50, cAMP TR-FRET (Lance Ultra) in HEK-293 cells, NECA as agonist; assay type: cell-based; conditions: A2AR IC50 (nM) (@5 nM NECA), HEK-293 cells expressing A2A receptor; agonist NECA 5 nM (EC90); inhibition of cAMP;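 also: compounds tested from 10 µM down to 0.08 nM in buffer with Rolipram at room temperature, TR-FRET cAMP signal read 1 h after adding Eu-cAMP tracer and ULight anti-cAMP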
T1 construct: host or cells: HEK-293
T1 sequence (P29274 whole entry): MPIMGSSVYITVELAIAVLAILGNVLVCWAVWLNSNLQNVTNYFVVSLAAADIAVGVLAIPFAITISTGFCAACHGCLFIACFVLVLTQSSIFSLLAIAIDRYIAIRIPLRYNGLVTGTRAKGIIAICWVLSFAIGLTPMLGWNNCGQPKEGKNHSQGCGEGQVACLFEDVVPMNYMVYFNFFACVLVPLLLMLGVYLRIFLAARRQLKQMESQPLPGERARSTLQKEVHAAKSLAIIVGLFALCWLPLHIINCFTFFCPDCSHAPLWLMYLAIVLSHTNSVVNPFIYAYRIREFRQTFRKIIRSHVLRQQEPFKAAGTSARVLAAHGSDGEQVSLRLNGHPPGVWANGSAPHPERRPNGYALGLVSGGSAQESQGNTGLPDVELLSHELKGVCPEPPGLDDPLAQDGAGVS
Source text: Adenosine A2A receptors and Adenosine A2B receptors induce the production of cAMP when activated/stimulated by an agonist like adenosine or 5′-(N-Ethylcarboxamido) adenosine (NECA). A Time-Resolved Fluorescence Energy Transfer (TR-FRET) assay was used to show the inhibition of this cAMP production in HEK cells upon treatment with compounds of the Formula I of the present disclosure.
HEK-293 cells expressing A2A receptor (#ES-011-C) or A2B receptor (#ES 013-C) were obtained from PerkinElmer. Cells were maintained in DMEM medium supplemented with 10% FBS and 200 μg/mL of G418 at 37° C. and 5% CO2. The cells were cultured in antibiotic free medium for a period of 16-20 hours prior to the assay. All subsequent steps of the assay are performed at room temperature (22-24° C.). The cells were harvested at about 80% confluency by gentle flushing with PBS, recovered by centrifugation and resuspended in stimulation buffer at the concentration of 5.0×10^6 cells/mL.
The assays were conducted in a stimulation buffer containing 1×DMEM, 5 mM HEPES, 0.1% BSA stabilizer and 20-30 μM Rolipram. Serial dilutions of compounds were made in stimulation buffer to achieve a final concentration of high micromolar (10 μM to 0.08 nM) in the reaction volume of 10 μL. The total reaction volume was 10 μL (5 μL of cells, 2.5 μL of antagonist and 2.5 μL of agonist). The stimulation was ended, and the reaction completed by adding 5 μL of 4× Eu-cAMP tracer working solution and 5 μL of 4× ULight-anti-cAMP working solution. The TR-FRET signal was measured after 1-hour incubation using a Tecan M1000 reader.

[2] = target: T2, A2B receptor (Homo sapiens, UniProt P29275); assay: A2bR antagonism IC50, cAMP TR-FRET in HEK-293 cells, high concentration of adenosine (30 μM); conditions: A2BR IC50 (nM) (@30 μM Adenosine), HEK-293 cells expressing A2B receptor; agonist adenosine 30 μM; 2% HSA; inhibition of cAMP;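 also: compounds preincubated 10 min with cells, then adenosine stimulation 30 min at room temperature in buffer with Rolipram 100 µM and EHNA 30 µM, TR-FRET read after 1 h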
T2 sequence (P29275 1-332): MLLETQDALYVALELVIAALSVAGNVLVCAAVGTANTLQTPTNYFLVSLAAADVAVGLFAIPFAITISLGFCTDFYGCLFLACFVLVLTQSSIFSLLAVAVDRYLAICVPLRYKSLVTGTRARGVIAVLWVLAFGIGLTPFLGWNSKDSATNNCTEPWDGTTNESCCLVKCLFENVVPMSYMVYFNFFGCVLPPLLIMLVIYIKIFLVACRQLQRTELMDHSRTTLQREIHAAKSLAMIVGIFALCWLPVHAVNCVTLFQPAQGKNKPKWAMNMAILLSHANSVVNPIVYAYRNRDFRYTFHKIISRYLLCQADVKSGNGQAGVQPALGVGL

[3] = target: T3, hERG potassium channel (Homo sapiens, UniProt Q12809); assay: hERG inhibition assay, Qpatch HTX automated electrophysiology; assay type: cell-based; conditions: CHO cell line stably expressing hERG; whole-cell patch clamp; room temperature
T3 construct: a Chinese Hamster Ovary cell line stably expressing the full-length hERG potassium channel; expressed in transfected cells; host or cells: Chinese Hamster Ovary cell line
T3 sequence (Q12809 whole entry): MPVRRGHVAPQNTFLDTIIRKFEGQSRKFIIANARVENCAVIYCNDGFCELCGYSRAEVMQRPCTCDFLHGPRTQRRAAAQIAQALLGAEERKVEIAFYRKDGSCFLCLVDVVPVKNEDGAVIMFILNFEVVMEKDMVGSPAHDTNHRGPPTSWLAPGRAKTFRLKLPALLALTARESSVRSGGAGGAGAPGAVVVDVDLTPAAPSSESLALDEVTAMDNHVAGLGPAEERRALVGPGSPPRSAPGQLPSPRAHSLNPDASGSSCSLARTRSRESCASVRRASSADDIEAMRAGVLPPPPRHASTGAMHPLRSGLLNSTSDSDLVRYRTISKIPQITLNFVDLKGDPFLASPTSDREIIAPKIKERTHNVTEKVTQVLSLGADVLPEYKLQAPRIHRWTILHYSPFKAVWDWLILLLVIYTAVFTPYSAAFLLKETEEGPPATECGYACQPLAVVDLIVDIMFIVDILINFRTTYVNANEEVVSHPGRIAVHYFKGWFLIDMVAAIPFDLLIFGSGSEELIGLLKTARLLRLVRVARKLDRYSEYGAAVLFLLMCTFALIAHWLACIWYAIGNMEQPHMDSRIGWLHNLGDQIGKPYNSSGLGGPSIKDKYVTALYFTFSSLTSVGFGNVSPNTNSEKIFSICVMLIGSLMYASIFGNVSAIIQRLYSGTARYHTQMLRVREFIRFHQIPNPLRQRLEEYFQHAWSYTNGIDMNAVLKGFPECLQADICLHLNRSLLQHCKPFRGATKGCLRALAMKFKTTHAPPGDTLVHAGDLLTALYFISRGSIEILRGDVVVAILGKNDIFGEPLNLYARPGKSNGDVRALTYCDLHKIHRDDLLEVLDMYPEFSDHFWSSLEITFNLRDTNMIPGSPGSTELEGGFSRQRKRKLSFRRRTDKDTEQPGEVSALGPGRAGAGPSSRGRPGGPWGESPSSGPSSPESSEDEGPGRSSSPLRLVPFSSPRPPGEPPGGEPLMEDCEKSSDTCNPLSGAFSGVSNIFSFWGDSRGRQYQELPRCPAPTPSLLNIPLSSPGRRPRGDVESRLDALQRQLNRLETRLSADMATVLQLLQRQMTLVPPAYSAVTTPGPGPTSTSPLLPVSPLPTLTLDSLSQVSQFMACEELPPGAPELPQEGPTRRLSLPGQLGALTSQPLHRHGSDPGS
Experimental: The representative compounds of formula I were tested for inhibition of the human ether a go-go related gene (hERG) K+ channel using Qpatch HTX automated electrophysiology. 6-Point concentration-response curves were generated using three-fold serial dilutions from a maximum final test concentration of […] and the results are presented in Table 3.
Compounds were solubilised to 100 mM in DMSO before dilution in HBPS to 100 μM. […] Electrophysiological recordings were made from a Chinese Hamster Ovary cell line stably expressing the full-length hERG potassium channel. Single cell ionic currents were measured in whole-cell patch clamp configuration at room temperature (21-23° C.) using the Qpatch HTX platform (Sophion). Intracellular solution contained (mM): 120 KF, 20 KCl, 10 EGTA, 10 HEPES and was buffered to pH 7.3. […] Cells were clamped at a holding potential of −80 mV. Cells were stepped to +20 mV for 2 s then −40 mV for 3 s before returning to the holding potential. This sweep was repeated 10 times at 10 s intervals. hERG currents were measured from the tail step and referenced to the holding current. Compounds were then incubated for 2 minutes prior to a second measurement of ion channel current using an identical pulse train.

[4] = tested on: human Peripheral blood mononuclear cells (PBMCs); assay: Cytokine restoration assay in human PBMCs (IL-2, TNF-α) under NECA; assay type: cell-based; conditions: PBMC, NECA 5 μM, anti CD3/28 Dynabeads, 48 hours
Source text: The ability of the invention compounds disclosed herein to restore the cytokines (IL-2 and TNF-α) release under adenosine agonist (NECA) environment evaluated using human Peripheral blood mononuclear cells (PBMCs). Peripheral blood was collected from healthy adult individuals in vacutainer tube. Peripheral blood mononuclear cells (PBMCs) were isolated via density gradient centrifugation, which uses Ficoll (Histopaque buffer) combined with short, low-speed centrifugation, to separate different cell populations. Diluted defibrinated blood was layered on a Ficoll and centrifuged at 1800 rpm for 20 minutes at 22° C. Differential migration of cells during centrifugation results in the formation of layers containing different cell types. The bottom layer contains erythrocytes. Remaining cells (i.e., lymphocytes, monocytes, and platelets) that are not dense enough to penetrate the Ficoll media layers (densities of 1.0770 g/ml), forms a buffy coat at the interface between the upper plasma layer and the Ficoll media layer. After carefully collected the buffy coat excess of platelets, Ficoll and plasma were removed by washing it with isotonic sterile phosphate buffered saline (PBS) and resulting cell pellet was resuspended in RPMI media with 5% FBS an P/S. The isolated PBMCs were allowed to be conditioned for an hour at 37° C. in a CO2 incubator. These cells were subsequently used for specific downstream assay. Isolated PBMC (3×10^5 cells/200 μl) were plated in 96 well microtiter plate in RPMI media with 5% FBS in presence of 100 units of penicillin plus 100 μg/ml streptomycin. NECA was added at a final concentration of 5 μM, control wells were maintained without NECA suppression (i.e., no NECA control). The assay plates were incubated at 37° C. for 4 hours in a CO2 incubator. Various concentrations of test compounds were added into respective wells in triplicates. Pre-washed anti CD3/28 Dynabeads (2.5 μL) was added for CD4 and CD8 + T-cell stimulation (to obtain a bead-to-cell ratio of 1:1). The assay plate was incubated at 37° C. in 5% CO2 and 20% ambient O2 maximum for 48 hours. At the end of 48 hours, the activated PBMC were harvested, and culture supernatants were used directly for further analysis. Forty-eight hours post treatment, 15 μL of cell-free supernatant was collected and assayed for secreted IL2 using the human Interleukin 2 (hIL2)—LANCE Ultra Detection Kit (Perkin Elmer). Similarly, level of soluble Tumor Necrosis Factor alpha (TNFα) was determined using human TNFα LANCE Ultra Detection Kit (Perkin Elmer). T-FRET signal was measured with Tecan spark multimode plate reader. Data was analyzed by graph-pad prism9. EC50 s of the compounds of Formula (I) in restoration of cytokine release under adenosine agonist from the human PBMCS are presented in Table 2

[5] = target: T1, A2A receptor; assay: A2aR antagonism IC50, cAMP TR-FRET in HEK-293 cells, high concentration of adenosine (30 μM); assay type: cell-based; conditions: HEK-293 cells expressing A2A receptor; agonist adenosine 30 μM; 2% HSA; inhibition of cAMP; read-out: A2AR IC50 (nM) (@30 μM Adenosine);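 also: compounds added 10 min before adenosine, then 30 min stimulation at room temperature in buffer with 100 µM rolipram and 30 µM EHNA, signal read 1 h after detection reagents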
[6] = target: T2, A2B receptor; assay: A2bR antagonism IC50, cAMP TR-FRET (Lance Ultra) in HEK-293 cells, NECA as agonist; assay type: cell-based; parameters: host or cells: HEK-293; conditions: HEK-293 cells expressing A2B receptor; agonist NECA 30 nM (EC90); inhibition of cAMP
[7] = read-out: IL-2 restoration EC50
[8] = read-out: TNF-α restoration EC50

Row | SMILES | IC50 [1] | IC50 [2] | IC50 [3] | EC50 [4, 7] | EC50 [4, 8] | IC50 [5] | IC50 [6]
1 | CCc1c(C)nn2c(N)c(C#N)c(NCCc3ccn(C4CCC4CO)n3)nc12 (single isomer, unassigned; (-)) [Example 79, (−)-7-amino-3-ethyl-5-((2-(1-(2-(hydroxymethyl)cyclobutyl)-1H-pyrazol-3-yl)ethyl)amino)-2-methylpyrazolo[1,5-a]pyrimidine-6-carbonitrile] | < 0.1 nM | 586 nM | > 100000 nM | 2.2 nM | 1.4 nM | 88 nM | 2 nM
2 | CCc1c(C)nn2c(N)c(C#N)c(NCCc3cccc(CCCO)n3)nc12 [Example 155, 7-amino-3-ethyl-5-((2-(6-(3-hydroxypropyl)pyridin-2-yl)ethyl)amino)-2-methylpyrazolo[1,5-a]pyrimidine-6-carbonitrile] | – | 429 nM | > 100000 nM | 3.6 nM | 3.2 nM | 181 nM | –
